In PMC11678797, “A Repurposed Drug Selection Pipeline to Identify CNS-Penetrant Drug Candidates for Glioblastoma” (Pharmaceuticals, 2024):

What was measured:
[1] = tested on: GBM8 glioblastoma patient-derived cell culture; test: In vitro drug screening, cell viability by CellTiter GLO 2.0 after 5 days; type: cell-based; details: Homo sapiens, 120 h, 5 days incubation
Experimental: (§1) Glioblastoma stem-like cell cultures (GSC) were derived from primary brain tumor samples received directly from the operating room. Tumor classification was performed by the local neuropathologist according to guidelines of the WHO 2007 and 2016 classification of primary brain tumors. The use of patient tissue for this study was approved by the local ethics committee and all patients signed informed consent forms according to the guidelines of the Institutional Review Board. Samples were processed as described previously. The GBM8 cell line was kindly provided by dr. Hiroaki Wakimoto (Massachusetts General Hospital, Boston, MA, USA). All cell cultures were grown in Dulbecco’s modified Eagle’s medium (DMEM)–F12 with 1% penicillin/streptomycin, B27 (Invitrogen), human epidermal growth factor (EGF; 5 μg/mL), human basic fibroblast growth factor (FGF; 5 μg/mL) (both from Tebu-Bio) and heparin ([…]; Sigma-Aldrich, St. Louis, MI, USA).
(§2) Glioma stem-like cell cultures were cultured under serum free conditions according to Verheul et al.. Cells were seeded in 96-well plates (Greiner bio-one, Kremsmünster, Austria) coated with extracellular matrix (BD Bioscience, Becton Drive Franklin Lakes, NJ, USA) at 1000 cells/well. A stock solution of OMA was diluted in a serum-free cell culture medium to obtain a starting concentration of 8 μM in 0.1% DMSO. Serial dilutions of OMA and DMSO were added to the wells 24 h later for an incubation period of 5 days. Cell viability was measured by the CellTiter GLO 2.0 and dose–response curves and IC50 values were calculated using GraphPad Prism version 9. All experiments were performed in 3 biological replicates.
(§3) GraphPad Prism software version 9.5 (GraphPad Software) was used for calculating IC50 values using nonlinear regression (curve-fit). GraphPad Prism was used to determine whether there was a statistically significant difference in OMA concentration and the B/P ratio between the L and R hemispheres of mice bearing GS832, GS607 and GBM8 tumors, using an unpaired t-test. […]

[2] = tested on: GS607 glioblastoma patient-derived cell culture; test: as above; type: cell-based; details: Homo sapiens, 120 h, 5 days incubation
Experimental: as §1, §2, §3

[3] = tested on: GS832 glioblastoma patient-derived cell culture; test: as above; type: cell-based; details: Homo sapiens, 120 h, 5 days incubation
Experimental: as §1, §2, §3

[4] = target: T1, murine P-gp (Abcb1a) (Mus musculus, UniProt P21447); test: Concentration equilibrium transport assay (CETA), LLC-PK1 cells transduced with murine Abcb1a; type: in vitro ADME; details: omacetaxine 100 nM, up to 4 h
T1 construct: expressed in transfected cells; host or cells: LLC-PK1 (pig kidney) cells transduced with murine Abcb1a (LLC-Mdr1a)
Experimental: (§4) In vitro transport studies were performed using the LLC pig kidney cell line (LLC-PK1) and sub-lines transduced with murine Abcb1a (LLC-Mdr1a) or human ABCB1 (LLC-MDR1). Similarly, in vitro transport studies were conducted in the parental Madin–Darby canine kidney (MDCK) type II cell line (MDCK-Parent) and murine Abcg2 (MDCK-Bcrp1) or human ABCG2 (MDCK-BCRP) transduced sublines. Concentration equilibrium transport assays (CETA) were performed as previously described. Briefly, cells were grown on polycarbonate membrane filters (3.0 µm pores, 24 mm diameter; Costar Corning, NY, USA) for 4 days. Next, 2 mL of MEM medium containing 10% FCS and omacetaxine (100 nM) was added to both the apical and basal compartments. Then, [14C]-inulin ([…]) was added basolateral to check the membrane integrity. Zosuquidar 1 μM was added to all wells containing MDCK cells to inhibit endogenous (canine) ABCB1. […] The integrity of the membrane was checked by taking 20 μL samples from both apical and basolateral sides for radioactivity counting. […] OMA concentrations were measured using an LC-MS/MS system that consisted of an UltiMate 3000 LC System (Dionex, Sunnyvale, CA, USA) and an API 4000 mass spectrometer (Sciex, Framingham, MA, USA).

[5] = target: T2, murine BCRP (Abcg2) (Mus musculus, UniProt Q7TMS5); test: Concentration equilibrium transport assay (CETA), MDCK cells transduced with murine Abcg2, with zosuquidar; type: in vitro ADME; details: omacetaxine 100 nM, zosuquidar 1 μM, up to 4 h
T2 construct: expressed in transfected cells; host or cells: MDCK type II (canine kidney) cells transduced with murine Abcg2 (MDCK-Bcrp1)
T2 sequence (Q7TMS5 1-657): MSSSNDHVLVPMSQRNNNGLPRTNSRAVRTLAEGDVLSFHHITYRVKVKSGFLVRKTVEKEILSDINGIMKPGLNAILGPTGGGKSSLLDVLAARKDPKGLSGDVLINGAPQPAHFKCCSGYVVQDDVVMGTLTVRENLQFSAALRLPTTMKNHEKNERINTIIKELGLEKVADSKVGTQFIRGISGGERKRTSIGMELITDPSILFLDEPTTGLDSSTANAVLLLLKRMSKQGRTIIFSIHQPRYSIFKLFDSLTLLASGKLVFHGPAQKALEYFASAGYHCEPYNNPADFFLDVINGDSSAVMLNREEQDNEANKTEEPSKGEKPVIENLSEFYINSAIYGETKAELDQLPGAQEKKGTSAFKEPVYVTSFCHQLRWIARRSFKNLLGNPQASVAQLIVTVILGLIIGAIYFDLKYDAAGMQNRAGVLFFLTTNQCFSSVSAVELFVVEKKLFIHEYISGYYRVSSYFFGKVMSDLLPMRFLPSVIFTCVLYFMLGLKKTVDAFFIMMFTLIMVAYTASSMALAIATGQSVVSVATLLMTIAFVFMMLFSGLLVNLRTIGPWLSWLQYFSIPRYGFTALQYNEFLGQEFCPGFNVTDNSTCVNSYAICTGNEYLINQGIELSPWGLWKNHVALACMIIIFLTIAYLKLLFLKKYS
Experimental: as §4

[6] = humans, cited from earlier work
[7] = source not stated; cited from earlier work

T1 sequence (P21447 whole entry): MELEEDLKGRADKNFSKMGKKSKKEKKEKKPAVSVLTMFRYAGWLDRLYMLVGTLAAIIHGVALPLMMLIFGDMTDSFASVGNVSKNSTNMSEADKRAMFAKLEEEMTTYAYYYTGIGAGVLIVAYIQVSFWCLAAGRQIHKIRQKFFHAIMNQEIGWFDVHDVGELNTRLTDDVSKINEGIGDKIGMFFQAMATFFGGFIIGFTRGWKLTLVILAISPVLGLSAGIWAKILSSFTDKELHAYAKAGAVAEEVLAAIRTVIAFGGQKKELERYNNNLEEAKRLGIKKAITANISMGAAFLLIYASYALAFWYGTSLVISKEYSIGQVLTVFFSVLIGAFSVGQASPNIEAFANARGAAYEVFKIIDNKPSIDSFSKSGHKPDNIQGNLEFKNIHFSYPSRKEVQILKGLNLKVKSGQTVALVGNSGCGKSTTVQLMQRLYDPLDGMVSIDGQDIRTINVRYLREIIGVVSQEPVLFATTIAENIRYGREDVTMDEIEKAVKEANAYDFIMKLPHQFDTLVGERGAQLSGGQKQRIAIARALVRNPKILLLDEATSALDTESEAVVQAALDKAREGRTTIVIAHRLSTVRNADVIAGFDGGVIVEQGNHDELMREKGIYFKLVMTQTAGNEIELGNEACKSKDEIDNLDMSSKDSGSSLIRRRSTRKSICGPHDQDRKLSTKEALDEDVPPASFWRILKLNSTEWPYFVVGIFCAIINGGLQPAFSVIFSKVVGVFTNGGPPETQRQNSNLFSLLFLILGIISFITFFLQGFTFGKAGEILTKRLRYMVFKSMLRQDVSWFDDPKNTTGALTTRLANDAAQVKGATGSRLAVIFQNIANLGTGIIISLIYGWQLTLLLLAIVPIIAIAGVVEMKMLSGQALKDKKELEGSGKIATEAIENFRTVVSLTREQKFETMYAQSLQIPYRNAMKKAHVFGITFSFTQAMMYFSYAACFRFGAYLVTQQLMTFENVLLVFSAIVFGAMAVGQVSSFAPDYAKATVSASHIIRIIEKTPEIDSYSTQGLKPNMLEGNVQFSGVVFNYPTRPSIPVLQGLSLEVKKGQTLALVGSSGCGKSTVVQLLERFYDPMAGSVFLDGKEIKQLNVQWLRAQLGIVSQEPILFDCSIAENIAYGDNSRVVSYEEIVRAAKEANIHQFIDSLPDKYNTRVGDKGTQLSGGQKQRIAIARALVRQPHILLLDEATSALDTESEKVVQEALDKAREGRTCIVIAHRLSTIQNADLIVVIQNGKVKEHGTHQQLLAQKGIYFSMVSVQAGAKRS

IC50 [1]: 7.2 nM | IC50 [2]: 22.9 nM | IC50 [3]: 4.9 nM | substrate of P-gp (translocation basolateral to apical) [4]: weak substrate | substrate of BCRP (translocation between apical and basolateral compartments) [5]: not a substrate
Compound: COC(=O)C[C@](O)(CCCC(C)(C)O)C(=O)O[C@@H]1C(OC)=C[C@]23CCCN2CCc2cc4c(cc2[C@H]13)OCO4 [OMA, Omacetaxine mepesuccinate]
time to reach Cmax plasma ([6]; s.c. administration): 1 h | Cmax ([6]; DrugBank, read-out: reported Cmax plasma value): 43 nM | half-life [6]: 7 h | logP value [7]: 1.88
